Laboratory results: ChEMBL document CHEMBL5053549, “Discovery of Potent and Novel Dual PARP/BRD4 Inhibitors for Efficient Treatment of Pancreatic Cancer” (J Med Chem, 2021)
Activity calls are given as the source filed them. No cut-off for these calls is given here.

Columns and labels:
Mus musculus [1] = assay: Inhibition of homologous recombinant repair in human SW1990 cells xenografted in BALB/c mouse assessed as increase in gammaH2AX expression at 45 mg/kg, ip after 4 days by immunohistochemical analysis; assay type: functional, organism-based; settings: time 4.0 day
Mus musculus [2] = assay: Inhibition of homologous recombinant repair in human SW1990 cells xenografted in BALB/c mouse assessed as reduction in c-Myc expression at 45 mg/kg, ip after 4 days by immunohistochemical analysis; assay type: functional, organism-based; settings: time 4.0 day
[3] = target: T1, Bromodomain-containing protein 4 (Homo sapiens, UniProt O60885); assay: Inhibition of recombinant BRD4 (unknown origin) incubated for 120 mins by TR-FRET assay
[4] = target: Bromodomain-containing protein 2 (Homo sapiens, UniProt P25440); assay: Inhibition of recombinant BRD2 BD2 (unknown origin) incubated for 120 mins by TR-FRET assay
Mus musculus [5] = assay: Inhibition of homologous recombinant repair in human SW1990 cells xenografted in BALB/c mouse assessed as reduction in BRCA1 expression at 45 mg/kg, ip after 4 days by immunohistochemical analysis; assay type: functional, organism-based; settings: time 4.0 day
Mus musculus [6] = assay: Inhibition of homologous recombinant repair in human SW1990 cells xenografted in BALB/c mouse assessed as reduction in FOXM1 expression at 45 mg/kg, ip after 4 days by immunohistochemical analysis; assay type: functional, organism-based; settings: time 4.0 day
[7] = target: T1, Bromodomain-containing protein 4; assay: Inhibition of recombinant BRD4 BD1 (unknown origin) incubated for 120 mins by TR-FRET assay
SW1990 [8] = assay: Inhibition of colony formation in human SW1990 cells at 1 uM after 14 days by crystal violet staining based microscopic analysis; assay type: functional, cell-based; settings: time 14.0 day
Mus musculus [9] = assay: In vivo inhibition of PARP1 expression in human […] cells xenografted in BALB/c mouse at 45 mg/kg, ip administered for 28 consecutive days by immunohistochemical analysis; assay type: functional, organism-based; settings: time 28.0 day
Mus musculus [10] = assay: In vivo inhibition of BRD4 expression in human […] cells xenografted in BALB/c mouse at 45 mg/kg, ip administered for 28 consecutive days by Q-PCR analysis; assay type: functional, organism-based; settings: time 28.0 day
SW1990 [11] = assay: Induction of apoptosis in human SW1990 cells assessed as necrotic cells at 2 uM after 4 days by Annexin V-FITC and propidium iodide staining based flow cytometry (reference value: 1.89%); assay type: functional; settings: time 4 day
SW1990 [12] = assay: Effect on cell cycle progression in human SW1990 cells assessed as reduction in E2F2 expression at 1 to 2 uM after 4 days by Western blot analysis; assay type: functional, cell-based; settings: dose 1-2 µM, time 4.0 day
SW1990 [13] = assay: Effect on cell cycle progression in human SW1990 cells assessed as reduction in E2F2 expression at 1 to 2 uM after 4 days by Q-PCR analysis; assay type: functional, cell-based; settings: dose 1-2 µM, time 4.0 day
Mus musculus [14] = assay: Effect on cell cycle progression in human SW1990 cells xenografted in BALB/c mouse assessed as reduction in E2F2 expression at 45 mg/kg, ip after 4 days by Q-PCR analysis; assay type: functional, organism-based; settings: time 4.0 day
SW1990 [15] = assay: Inhibition of homologous recombinant repair in human SW1990 cells assessed as reduction in FOXM1 expression at 1 to 2 uM after 4 days by Q-PCR analysis; assay type: functional, cell-based; settings: dose 1-2 µM, time 4.0 day
SW1990 [16] = assay: Inhibition of homologous recombinant repair in human SW1990 cells assessed as reduction in FOXM1 expression at 1 to 2 uM after 4 days by Western blot analysis; assay type: functional, cell-based; settings: dose 1-2 µM, time 4.0 day
SW1990 [17] = assay: Inhibition of homologous recombinant repair in human SW1990 cells assessed as increase in […] expression at 1 to 2 uM after 4 days by Q-PCR analysis; assay type: functional, cell-based; settings: dose 1-2 µM, time 4.0 day
SW1990 [18] = assay: Inhibition of homologous recombinant repair in human SW1990 cells assessed as reduction in c-Myc expression at 1 to 2 uM after 4 days by Q-PCR analysis; assay type: functional, cell-based; settings: dose 1-2 µM, time 4.0 day
SW1990 [19] = assay: Induction of autophagy in human SW1990 cells assessed as increase in LC3B expression at 1 to 2 uM incubated for 4 days by immunofluorescence assay; assay type: functional, cell-based; settings: dose 1-2 µM, time 4.0 day
SW1990 [20] = assay: Induction of autophagy in human SW1990 cells assessed as reduction in Bcl-2 expression at 1 to 2 uM incubated for 4 days by immunofluorescence assay; assay type: functional, cell-based; settings: dose 1-2 µM, time 4.0 day
SW1990 [21] = assay: Induction of autophagy in human SW1990 cells assessed as reduction in p62 expression at 4 uM incubated for 4 days by immunofluorescence assay; assay type: functional, cell-based; settings: time 4.0 day
[22] = target: Poly [ADP-ribose] polymerase 1 (Homo sapiens, UniProt P09874); assay: Inhibition of PARP1 in human SW1990 cells assessed as reversal of Olaparib-induced PARP1 accumulation in nucleus at 1 uM after 4 days by Western blot analysis; assay type: cell-based; settings: time 4.0 day
Mus musculus [23] = assay: Toxicity in BALB/c mouse xenografted with human SW1990 cells assessed as spleen damage at 15 mg/kg, ip administered for 28 consecutive days by H and E staining based […] microscopic analysis; assay type: organism-based; settings: in vivo, 672 h, time 28 day
Mus musculus [24] = assay: Toxicity in BALB/c mouse xenografted with human SW1990 cells assessed as lung damage at 15 mg/kg, ip administered for 28 consecutive days in presence of 45 mg/kg Olaparib; assay type: organism-based; settings: in vivo, 672 h, time 28 day
Mus musculus [25] = assay: Toxicity in BALB/c mouse xenografted with human SW1990 cells assessed as spleen damage at 15 mg/kg, ip administered for 28 consecutive days in presence of 45 mg/kg Olaparib; assay type: organism-based; settings: in vivo, 672 h, time 28 day
Mus musculus [26] = assay: In vivo inhibition of PARP1 expression in human […] cells xenografted in BALB/c mouse assessed as reversal of Olaparib-induced PARP1 accumulation at 15 mg/kg, ip administered for 28 consecutive days in presence of 45 mg/kg Olaparib by immunohistochemical analysis; assay type: functional, organism-based; settings: time 28.0 day
Mus musculus [27] = assay: In vivo inhibition of PARP1 expression in human […] cells xenografted in BALB/c mouse assessed as reversal of Olaparib-induced PARP1 accumulation at 15 mg/kg, ip administered for 28 consecutive days in presence of 45 mg/kg Olaparib by Q-PCR analysis; assay type: functional, organism-based; settings: time 28.0 day
Mus musculus [28] = assay: In vivo inhibition of PARP1 expression in human […] cells xenografted in BALB/c mouse assessed as reversal of Olaparib-induced PARP1 accumulation at 15 mg/kg, ip administered for 28 consecutive days in presence of 45 mg/kg Olaparib by Western blot analysis; assay type: functional, organism-based; settings: time 28.0 day
SW1990 [29] = assay: Induction of apoptosis in human SW1990 cells assessed as necrotic cells at 4 uM after 4 days by Annexin V-FITC and propidium iodide staining based flow cytometry (reference value: 1.89%); assay type: functional; settings: time 4 day
SW1990 [30] = assay: Induction of cell cycle arrest in human SW1990 cells assessed as accumulation of cells at G2/M phase at 1 uM incubated for 4 days in presence of 3 uM Olaparib by propidium iodide staining based flow cytometry (reference value: 5.89%); assay type: functional; settings: time 4 day
SW1990 [31] = assay: Induction of DNA damage in human SW1990 cells assessed as tail DNA at 4 uM incubated for 4 days by comet assay; assay type: functional, cell-based; settings: time 4.0 day
SW1990 [32] = assay: Induction of DNA damage in human SW1990 cells assessed as increase in gammaH2AX at 1 uM incubated for 4 days in presence of Olaparib by immunofluorescence assay; assay type: functional, cell-based; settings: time 4.0 day
SW1990 [33] = assay: Inhibition of homologous recombinant repair in human SW1990 cells assessed as increase in […] expression at 4 uM after 4 days by Q-PCR analysis; assay type: functional, cell-based; settings: time 4.0 day

Sequence of Bromodomain-containing protein 2 (P25440 whole entry): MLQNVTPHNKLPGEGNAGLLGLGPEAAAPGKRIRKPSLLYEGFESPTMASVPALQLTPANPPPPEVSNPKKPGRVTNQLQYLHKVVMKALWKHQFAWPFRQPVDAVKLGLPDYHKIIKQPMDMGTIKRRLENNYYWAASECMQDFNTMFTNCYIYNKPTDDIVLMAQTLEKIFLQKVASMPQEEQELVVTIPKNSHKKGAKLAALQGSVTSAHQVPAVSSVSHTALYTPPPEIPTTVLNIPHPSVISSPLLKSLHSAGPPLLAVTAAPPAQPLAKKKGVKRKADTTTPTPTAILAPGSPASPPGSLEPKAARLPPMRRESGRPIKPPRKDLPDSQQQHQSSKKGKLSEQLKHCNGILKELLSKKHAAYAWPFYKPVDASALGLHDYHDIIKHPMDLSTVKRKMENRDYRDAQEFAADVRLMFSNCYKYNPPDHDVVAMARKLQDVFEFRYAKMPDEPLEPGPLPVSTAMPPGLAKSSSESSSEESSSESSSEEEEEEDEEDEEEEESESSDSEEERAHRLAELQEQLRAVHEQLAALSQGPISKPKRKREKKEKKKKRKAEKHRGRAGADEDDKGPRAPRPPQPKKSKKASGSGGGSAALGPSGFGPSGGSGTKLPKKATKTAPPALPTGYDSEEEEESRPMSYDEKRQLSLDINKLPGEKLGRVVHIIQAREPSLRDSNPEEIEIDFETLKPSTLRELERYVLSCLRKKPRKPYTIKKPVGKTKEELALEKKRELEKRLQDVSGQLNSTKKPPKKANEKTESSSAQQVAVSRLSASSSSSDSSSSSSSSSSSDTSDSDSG
Sequence of Poly [ADP-ribose] polymerase 1 (P09874 whole entry): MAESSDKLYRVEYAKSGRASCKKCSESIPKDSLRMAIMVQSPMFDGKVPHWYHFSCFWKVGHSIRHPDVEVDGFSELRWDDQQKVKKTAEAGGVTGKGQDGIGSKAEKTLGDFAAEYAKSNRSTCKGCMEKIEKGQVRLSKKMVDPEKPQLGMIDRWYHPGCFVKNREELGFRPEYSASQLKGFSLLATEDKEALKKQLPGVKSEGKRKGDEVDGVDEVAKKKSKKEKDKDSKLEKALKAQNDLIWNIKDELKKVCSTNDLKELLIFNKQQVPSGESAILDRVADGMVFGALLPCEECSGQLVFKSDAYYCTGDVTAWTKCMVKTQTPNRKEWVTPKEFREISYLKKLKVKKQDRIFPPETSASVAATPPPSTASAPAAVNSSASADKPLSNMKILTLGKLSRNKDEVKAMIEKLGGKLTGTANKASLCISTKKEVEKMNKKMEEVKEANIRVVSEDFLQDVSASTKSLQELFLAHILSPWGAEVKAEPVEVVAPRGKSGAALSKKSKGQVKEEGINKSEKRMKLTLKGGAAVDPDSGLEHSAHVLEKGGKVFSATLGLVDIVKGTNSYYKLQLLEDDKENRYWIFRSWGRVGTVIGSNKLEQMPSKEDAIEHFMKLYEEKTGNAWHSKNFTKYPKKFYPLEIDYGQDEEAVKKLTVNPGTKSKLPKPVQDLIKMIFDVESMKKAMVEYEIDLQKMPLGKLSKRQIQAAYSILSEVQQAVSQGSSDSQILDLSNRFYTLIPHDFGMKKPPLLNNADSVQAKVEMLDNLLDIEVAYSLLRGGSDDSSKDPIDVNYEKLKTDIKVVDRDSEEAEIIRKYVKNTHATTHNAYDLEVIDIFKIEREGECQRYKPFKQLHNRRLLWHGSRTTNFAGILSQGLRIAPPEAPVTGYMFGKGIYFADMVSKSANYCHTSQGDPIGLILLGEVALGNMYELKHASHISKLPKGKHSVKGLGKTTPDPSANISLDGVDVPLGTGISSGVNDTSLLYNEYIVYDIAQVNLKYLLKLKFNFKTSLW

**Q.** How did the inhibition (Mus musculus [1]) turn out when `CC[C@@H]1C(=O)N(C)c2cnc(N(C)c3ccc(-c4nc5c(C(N)=O)cccc5[nH]4)cc3OC)nc2N1C1CCCC1` was run?
**A.** Its inhibition is “Active”.

**Q.** What about the inhibition (Mus musculus [2]) of the same compound?
**A.** The inhibition was “Active”.

**Q.** What about the IC50 [3] of the same compound?
**A.** Its IC50 is 101 nM.

**Q.** What about the IC50 [4] of the same compound?
**A.** The IC50 was 168 nM.

**Q.** And the inhibition (Mus musculus [5])?
**A.** Its inhibition is “Active”.

**Q.** And the inhibition (Mus musculus [6])?
**A.** Its inhibition is “Active”.

**Q.** What about the IC50 [7] of the same compound?
**A.** Its IC50 is 75 nM.

**Q.** What about the inhibition (SW1990 [8]) of the same compound?
**A.** The inhibition was “Active”.

**Q.** What about the Activity (Mus musculus [9]) of the same compound?
**A.** The Activity was “Active”.

**Q.** And the Activity (Mus musculus [10])?
**A.** The Activity was “Active”.

**Q.** And the Activity (SW1990 [11])?
**A.** Its Activity is 4.56%.

**Q.** And the Activity (SW1990 [12])?
**A.** Its Activity is “Active”.

**Q.** And the Activity (SW1990 [13])?
**A.** The Activity was “Active”.

**Q.** What about the Activity (Mus musculus [14]) of the same compound?
**A.** Its Activity is “Active”.

**Q.** What about the inhibition (SW1990 [15]) of the same compound?
**A.** The inhibition was “Active”.

**Q.** And the inhibition (SW1990 [16])?
**A.** Its inhibition is “Active”.

**Q.** What about the inhibition (SW1990 [17]) of the same compound?
**A.** Its inhibition is “Active”.

**Q.** And the inhibition (SW1990 [18])?
**A.** Its inhibition is “Active”.

**Q.** And the Activity (SW1990 [19])?
**A.** Its Activity is “Active”.

**Q.** What about the Activity (SW1990 [20]) of the same compound?
**A.** The Activity was “Active”.

**Q.** `Cc1sc2c(c1C)C(c1ccc(Cl)cc1)=N[C@@H](CC(=O)OC(C)(C)C)c1nnc(C)n1-2` was tested. Which Activity (SW1990 [21]) did it give?
**A.** The Activity was “Active”.

**Q.** What about the inhibition [22] of the same compound?
**A.** Its inhibition is “Active”.

**Q.** And the Activity (Mus musculus [23])?
**A.** Its Activity is “Non-Toxic”.

**Q.** What about the Activity (Mus musculus [24]) of the same compound?
**A.** Its Activity is “Non-Toxic”.

**Q.** And the Activity (Mus musculus [25])?
**A.** Its Activity is “Non-Toxic”.

**Q.** And the Activity (Mus musculus [26])?
**A.** Its Activity is “Active”.

**Q.** What about the Activity (Mus musculus [27]) of the same compound?
**A.** The Activity was “Active”.

**Q.** And the Activity (Mus musculus [28])?
**A.** Its Activity is “Active”.

**Q.** And the Activity (SW1990 [29])?
**A.** Its Activity is 1.23%.

**Q.** And the Activity (SW1990 [30])?
**A.** Its Activity is 9.14%.

**Q.** What about the Activity (SW1990 [31]) of the same compound?
**A.** Its Activity is “Active”.

**Q.** What about the Activity (SW1990 [32]) of the same compound?
**A.** The Activity was “Active”.

**Q.** And the inhibition (SW1990 [33])?
**A.** Its inhibition is “Active”.
